According to ChEMBL document CHEMBL3046232, “Synthesis, pharmacological evaluation and molecular docking studies of indanone derivatives” (2012):

Columns and labels:
Type in all cases: functional
Mus musculus [1] = experiment: Analgesic activity in Mus musculus Swiss albino (mouse) assessed as increase in reaction time of paw licking or jump response at 50 mg/kg, po after 60 min by hot plate method
Bacillus subtilis [2] = experiment: Antimicrobial activity against at Bacillus subtilis at 50 ug/ml by cup plate method; settings: read-out: IZ
Bacillus subtilis [3] = experiment: Antimicrobial activity against at Bacillus subtilis at 100 ug/ml by cup plate method; settings: read-out: IZ
Rattus norvegicus [4] = experiment: Anti-inflammatory activity in Rattus norvegicus Wistar albino (rat) assessed as protection against carrageenan-induced paw edema at 50 mg/kg after 3 hr
Rattus norvegicus [5] = experiment: Anti-inflammatory activity in Rattus norvegicus Wistar albino (rat) assessed as protection against carrageenan-induced paw edema at 50 mg/kg after 2 hr
Escherichia coli [6] = experiment: Antimicrobial activity against at Escherichia coli at 100 ug/ml by cup-plate method; settings: read-out: IZ
Penicillium chrysogenum [7] = experiment: Antimicrobial activity against at Penicillium chrysogenum at 100 ug/ml by cup-plate method; settings: read-out: IZ
Rattus norvegicus [8] = experiment: Anti-inflammatory activity in Rattus norvegicus Wistar albino (rat) assessed as protection against carrageenan-induced paw edema at 50 mg/kg after 30 min
Rattus norvegicus [9] = experiment: Anti-inflammatory activity in Rattus norvegicus Wistar albino (rat) assessed as protection against carrageenan-induced paw edema at 50 mg/kg after 60 min
Aspergillus niger [10] = experiment: Antimicrobial activity against at Aspergillus niger at 25 ug/ml by cup-plate method; settings: read-out: IZ
Mus musculus [11] = experiment: Analgesic activity in Mus musculus Swiss albino (mouse) assessed as increase in reaction time of paw licking or jump response at 50 mg/kg, po after 30 min by hot plate method
Rattus norvegicus [12] = experiment: Anti-inflammatory activity in Rattus norvegicus Wistar albino (rat) assessed as protection against carrageenan-induced paw edema at 50 mg/kg after 90 min
Aspergillus niger [13] = experiment: Antimicrobial activity against at Aspergillus niger at 100 ug/ml by cup-plate method; settings: read-out: IZ
Penicillium chrysogenum [14] = experiment: Antimicrobial activity against at Penicillium chrysogenum at 50 ug/ml by cup-plate method; settings: read-out: IZ
Escherichia coli [15] = experiment: Antimicrobial activity against at Escherichia coli at 50 ug/ml by cup-plate method; settings: read-out: IZ
Mus musculus [16] = experiment: Analgesic activity in Mus musculus Swiss albino (mouse) assessed as increase in reaction time of paw licking or jump response at 50 mg/kg, po after 90 min by hot plate method
Aspergillus niger [17] = experiment: Antimicrobial activity against at Aspergillus niger at 50 ug/ml by cup-plate method; settings: read-out: IZ
Penicillium chrysogenum [18] = experiment: Antimicrobial activity against at Penicillium chrysogenum at 25 ug/ml by cup-plate method; settings: read-out: IZ
Escherichia coli [19] = experiment: Antimicrobial activity against at Escherichia coli at 25 ug/ml by cup-plate method; settings: read-out: IZ
Bacillus subtilis [20] = experiment: Antimicrobial activity against at Bacillus subtilis at 25 ug/ml by cup plate method; settings: read-out: IZ

| Compound | Activity (Mus musculus [1]) [%] | zone of inhibition at 50 µg/mL (Bacillus subtilis [2]) [mm] | zone of inhibition at 100 µg/mL (Bacillus subtilis [3]) [mm] | Activity (Rattus norvegicus [4]) [%] | Activity (Rattus norvegicus [5]) [%] | zone of inhibition at 100 µg/mL (Escherichia coli [6]) [mm] | zone of inhibition at 100 µg/mL (Penicillium chrysogenum [7]) [mm] | Activity (Rattus norvegicus [8]) [%] | Activity (Rattus norvegicus [9]) [%] | zone of inhibition at 25 µg/mL (Aspergillus niger [10]) [mm] | Activity (Mus musculus [11]) [%] | Activity (Rattus norvegicus [12]) [%] | zone of inhibition at 100 µg/mL (Aspergillus niger [13]) [mm] | zone of inhibition at 50 µg/mL (Penicillium chrysogenum [14]) [mm] | zone of inhibition at 50 µg/mL (Escherichia coli [15]) [mm] | Activity (Mus musculus [16]) [%] | zone of inhibition at 50 µg/mL (Aspergillus niger [17]) [mm] | zone of inhibition at 25 µg/mL (Penicillium chrysogenum [18]) [mm] | zone of inhibition at 25 µg/mL (Escherichia coli [19]) [mm] | zone of inhibition at 25 µg/mL (Bacillus subtilis [20]) [mm] |
| --- | --- | --- | --- | --- | --- | --- | --- | --- | --- | --- | --- | --- | --- | --- | --- | --- | --- | --- | --- | --- |
| CN(C)c1ccc(-c2onc3c2C(=O)c2ccccc2-3)cc1 | 5.65 | 4.75 | 12 | 20.1 | 19.21 | 17.2 | 12.2 | 7.11 | 8.45 | 5.5 | 5.02 | 14.23 | 13 | 7.25 | 12 | 9.93 | 7.5 | 4 | – | – |
| COc1ccc(-c2onc3c2C(=O)c2ccccc2-3)cc1 | 5.13 | 5.5 | 14.8 | 9.21 | 12.32 | 20.2 | 19.6 | 7.71 | 12.21 | 7.25 | 3.06 | 16.38 | 17 | 12.7 | – | 8.04 | 11.7 | 5.35 | 5.5 | – |
| COc1cc(-c2onc3c2C(=O)c2ccccc2-3)cc(OC)c1OC | 9.75 | 11.5 | 18.8 | 26.32 | 29.15 | 27.8 | 19 | 17.21 | 22.38 | 6.49 | 4.48 | 29.14 | 19.2 | 9.25 | 16.5 | 12.54 | 11.2 | 5.5 | – | 5.25 |
| COc1cccc(-c2onc3c2C(=O)c2ccccc2-3)c1O | 11.44 | – | 16 | 30.41 | 34.32 | 21 | 16.6 | 25.44 | 32.22 | 10.8 | 6 | 37.62 | 29.6 | 10.5 | 14.7 | 16.43 | 16.5 | 5.35 | 10.2 | 6.75 |
| CC1(C)S[C@@H]2[C@H](NC(=O)[C@H](N)c3ccccc3)C(=O)N2[C@H]1C(=O)O [AMPICILLIN] | – | 12.1 | 21.1 | – | – | 32.7 | – | – | – | – | – | – | – | – | 20.4 | – | – | – | 11.2 | 9.1 |
| OC(Cn1cncn1)(Cn1cncn1)c1ccc(F)cc1F [FLUCONAZOLE] | – | – | – | – | – | – | 21.2 | – | – | 11.9 | – | – | 31.8 | 14.2 | – | – | 21.7 | 7.32 | – | – |
| COc1ccc2c(c1)c(CC(=O)O)c(C)n2C(=O)c1ccc(Cl)cc1 [INDOMETHACIN] | – | – | – | 20.22 | 20.15 | – | – | 28.56 | 23.22 | – | – | 21.12 | – | – | – | – | – | – | – | – |
